# Laboratory results published in patent publication US7041276B2, “Methods of screening agents for activity using teleosts” (priority 1998, dated 2006).
# “Also recorded” adds a separate entry of the source.
# What was measured:
# [1] = tested on: liver of zebrafish embryos; assay: Liver staining with streptavidin-peroxidase (DAB visual, ABTS colorimetric); format: in vivo
# From the text: Toxic activity in the liver of the treated whole animal can be assessed visually by using a rapid colorimetric staining procedure. This procedure is based on the use of a streptavidin (avidin) conjugated reporter enzyme, such as peroxidase, to detect naturally biotinylated carboxylase enzymes in the liver, gut, and digestive tube of whole animals, such as zebrafish embryos. These biotinyl-lysine containing enzymes, such as acetyl-CoA carboxylase and other carboxylases, are predominantly located in the liver and digestive tube. As a result, staining is organ specific (FIG. 11). Quantitative biotinylated assessment of the liver can be made. By visual detection of biotinylation, size and location of the liver can be determined.
# Zebrafish embryos (4, 5 or 6 days old) were fixed with 4% paraformaldehyde for 1 hour at room temperature and treated with methanol 100% overnight at −20° C. The embryos were rehydrated and washed with PBST. […] The embryos were then washed twenty minutes three times with PBST and stained for peroxidase with two different dyes: Diaminobenzidine (DAB) (Pierce) (insoluble) to assess liver staining and 2,2′-Azino-bis(3-Ethylbenz-thiazoline-6-sulfonic acid)(ABTS)(Sigma)(soluble) to measure a quantitative visual signal using a colorimetric method. […] The ABTS signal was detected by measuring the absorbance of the solution at 405 nanometer […] using a spectrophotometer. […]
# [2] = tested on: zebrafish embryos; assay: Five-day zebrafish toxicity testing; format: in vivo; conditions: for Zebrafish specific toxicity observed: five-day exposure
# Experimental: Fertilized zebrafish embryos were obtained by natural spawning in our aquaculture facility. To reduce variations between batches, randomized samples of embryos from 3 or 4 independent matings were used. The test medium was prepared by combining 5 g of Instant Ocean Salt with 3 g of CaSO4 in 25 liters of distilled water, according to Westerfield, supra. The embryos were maintained in the test medium throughout the experiments. Embryos at 24 hours of development (with chorion) were exposed continuously for five days to chemical compounds at different concentrations of the chemical compounds and controls. In general, the concentrations ranged from 100 nanomolar (nM) to 100 micromolar (μM). Tests were repeated four times for each series of dilutions, and a standard deviation was calculated for each treatment (see “Statistical Methods” section). Ten embryos per concentration were exposed in a total volume of 1 ml (constant ratio of 100 μl/embryo) using a 24 multi-well plate. (Other sizes of multi-well plates, such as 96-well plates can also be used to facilitate screening.) The compounds were renewed daily. In all cases, 0.1% of dimethyl sulfoxide (DMSO) was used as a carrier solvent during the treatment. Controls with and without 0.1% DMSO were performed in all experiments. This approach has long been used to introduce anesthetics and other chemicals into fish embryos (Westerfield, supra).
# Experiments were carried out at a constant temperature (28–28.5° C.) in the dark to protect the compounds from decomposition due to light exposure. Dead embryos were removed daily, counted, and used to calculate the Median Lethal Concentration (LC50, see “Statistical Methods” section herein). Each day, surviving embryos were analyzed visually under a dissecting binocular microscope (Zeiss, amplification 30–50×). Macroscopic malformations (such as axial defects, embryolethality, growth inhibition, general malformations, including microcephaly, macrocephaly, tail truncation, tail malformation, loss of axial structures, such as somites, etc.) were observed, classified, and counted to assess whole animal toxicity. Compounds that were lethal or induced these or any noted malformations or disruptions during development (e.g., during the first 5 days of development) were further examined for toxic effects on organs. The embryonic developmental stage that is affected by the toxic compound can be determined. Organ toxicity can be assessed in surviving embryos using in situ hybridization, enzymatic assays, and immunochemistry procedures.
# Toxic activity in the kidney (Pronephros) can be assessed visually by colorimetric staining of the kidney of the treated whole animal (e.g., zebrafish). Zebrafish pronephros express high levels of the enzyme alkaline phosphatase that can be easily assayed using a chromogenic dye. To stain kidneys in zebrafish embryos, embryos were fixed with 2% paraformaldehyde overnight at 4° C. and then treated with methanol 100% for 30 minutes at room temperature. […]
# For the concentrations tested with aspirin and dexamethasone in these studies, there was no partial lethality and the geometric mean of the parameters “no mortality” (0%) and “mortality” (100%) of the effect concentration was taken as the LC50 and binomial confidence limits were calculated according to Stephan, “Methods for Calculating LD50” in Aquatic Toxicology and Hazard Evaluation (F. L. Mayce and J. L. Hamelink eds.) ASTM STP 634, pp. 65–84. […]
# [3] = tested on: rats; conditions: i.p. (intraperitoneal); cited from earlier work
# [4] = tested on: mice; conditions: i.p. (intraperitoneal); cited from earlier work
# [5] = tested on: mice and rats; conditions: TOXNET Web Search and other sources; cited from earlier work
smiles,measurement,setting,value
C[C@@H]1C[C@H]2[C@@H]3CCC4=CC(=O)C=C[C@]4(C)[C@@]3(F)[C@@H](O)C[C@]2(C)[C@@]1(O)C(=O)CO [Dexamethasone],liver size compared with control embryos,"[1]; 100 μM for five days, six day old embryo",dramatic reduction in liver size
same,"reduction of the colorimetric liver signal (ABTS, 405 nm) compared with untreated embryos","[1]; 100 μM, five days",about 70%
same,Zebrafish LD50,[2]; embryos exposed continuously for five days from 24 hours of development,324 mg/L
same,Zebrafish specific toxicity observed,[2],"liver,; also recorded: gastro-"
same,Zebrafish specific toxicity observed,[2]; listed as dexamethasone,Liver and gastrointestinal toxicity
same,Mammalian models LD50,[3],"54 (rats, i.p.) mg/kg"
same,Mammalian models LD50,[4],"410 (mice, i.p.) mg/kg"
same,Mammalian models specific toxicity (from the literature),[5],"liver,; also recorded: gastro-"
